In patent publication US10183949B2, “Pyrimidinone derivative having autotaxin-inhibitory activity” (The University of Tokyo, priority 2014, dated 2019):

These compounds were tested against T1, Human autotaxin enzyme (Homo sapiens, UniProt Q13822) (assay: Evaluation of autotaxin inhibitor, 18:0 Lyso PC / choline assay (Test Example 2)). Details: autotaxin inhibition, IC50 class; read-out: Inhibitor activity.
T1 construct: purchased R&D System
Format: biochemical
Protocol: Solution B containing 100 mM Tris-HCl buffer (pH7.5), 150 mM NaCl, 5 mM MgCl2, and 0.05% Triton X-100 was prepared. Human autotaxin enzyme (purchased from R&D System) was diluted with Solution B, and 2.5 μl of which was added to a solution of test compound in DMSO. Furthermore, 2.5 μl of 200 μM 18:0 Lyso PC (purchased from Avanti Polar Lipids) in Solution B was added and allowed to react at room temperature for 2 hours. After completion of the reaction, 15 μl of the coline assay reagent. (100 mM Tris-HCl buffer (pH7.5), 5 mM. MgCl2, 77 μg/ml coline oxidase, 10 μg/ml peroxydase, 25μM 10-acetyl-3,7-dihydroxyphenoxazine, and excess autotaxin inhibitor) was added and allowed to react at room temperature for 20 minutes. The fluorescent dye Resorufin, which was produced by the reaction, was detected. The fluorescence was detected using ViewLux
(PerkinElmer, Inc.) with a excitation wavelength of 531 nm and a fluorescence wavelength of 598 nm.
The percent inhibition of the test compound was calculated by assuming the sample with no test compound as 0% inhibition and the sample with no enzyme as 100% inhibition, and the percent inhibitions at different concentrations of the test compound were plotted to obtain a concentration-dependent curve.
In the case of `CSc1nc(-c2ccc(Cl)cc2NC(C)=O)cc(=O)n1CC(=O)NCC(C)(C)O` [Compound I-0250], the IC50 is reported as 10 to 100 nM.

Same assay, conditions: human autotaxin enzyme, 18:0 Lyso PC substrate, choline assay, room temperature 2 hours; read-out: Inhibitor activity (IC50)
Compound `CNS(=O)(=O)CCNC(=O)Cn1c(C)nc(-c2ccc(Cl)cc2NC(=O)C2CC2)cc1=O` [Compound I-0474] has an IC50 of 10 to 100 nM.
Work on `CN(C)C(=O)CNC(=O)c1cccc(Cn2c(CCCC(F)(F)F)nc(-c3ccc(Cl)cc3)cc2=O)c1` [Compound I-0183] yielded an IC50 of 10 to 100 nM.
In the case of `COC(=O)Nc1cc(C#N)ccc1-c1cc(=O)n(CC(=O)NC2(C#N)CC2)c(C)n1` [Compound I-0394], the IC50 is reported as less than 10 nM.
Work on `CCCCCc1nc(-c2ccc(Cl)cc2)cc(=O)n1CC(=O)N1CCOC(c2ccccc2)C1` (centres unmarked) [Compound I-0100] yielded an IC50 of 100 to 1000 nM.
Compound `O=C(Cn1c(CCCC(F)(F)F)nc(-c2ccc(C(F)(F)F)cc2)cc1=O)N1CCN(CCO)CC1` [Compound I-0346] has an IC50 of 10 to 100 nM.
`CC(C)(C)OC(=O)Cn1c(CCCC(F)(F)F)nc(-c2ccc(Cl)cc2CO)cc1=O` [Compound I-0299] showed an IC50 of less than 10 nM.
`Cc1nc(C2=CCC(C(F)(F)F)CC2)cc(=O)n1Cc1cccc(C(=O)O)c1` (centres unmarked) [Compound I-0262] showed an IC50 of 100 to 1000 nM.
`COC(=O)Nc1cc(C#N)ccc1-c1cc(=O)n(CC(=O)OC(C)(C)C#N)c(C)n1` [Compound I-0373] gave an IC50 of 10 to 100 nM.
In the case of `CCCCCc1nc(-c2ccc(Cl)cc2)cc(=O)n1CC(=O)N[C@@H](CCc1ccccc1)C(=O)O` [Compound I-0101], the IC50 is reported as 10 to 100 nM.
`O=C(Cn1c(CCCC(F)(F)F)nc(-c2ccc(C(F)(F)F)cc2)cc1=O)NCC1CCC(=O)N1` (centres unmarked) [Compound I-0335] gave an IC50 of 10 to 100 nM.
Work on `O=C(c1cccc(Cn2c(CCCC(F)(F)F)nc(-c3ccc(Cl)cc3)cc2=O)c1)N1CCC(O)CC1` [Compound I-0158] yielded an IC50 of 10 to 100 nM.
`O=C(NCCS(=O)(=O)O)c1cccc(Cn2c(CCCC(F)(F)F)nc(-c3ccc(Cl)cc3)cc2=O)c1` [Compound I-0154] gave an IC50 of 10 to 100 nM.
`O=C(NCC1(CO)COC1)c1cccc(Cn2c(CCCC(F)(F)F)nc(-c3ccc(Cl)cc3)cc2=O)c1` [Compound I-0194] showed an IC50 of 100 to 1000 nM.
Work on `CN(C)C(=O)CNC(=O)Cn1c(CCCC(F)(F)F)nc(-c2ccc(Cl)cc2)cc1=O` [Compound I-0127] yielded an IC50 of 100 to 1000 nM.
Compound `CCCCCc1nc(-c2ccc(Cl)cc2)cc(=O)n1CC(=O)NCc1cccc(=O)n1C` [Compound I-0038] has an IC50 of 100 to 1000 nM.
In the case of `C[C@@H]1COC[C@H](C)N1C(=O)Cn1c(CCCC(F)(F)F)nc(-c2ccc(Cl)cc2)cc1=O` [Compound I-0125], the IC50 is reported as 10 to 100 nM.
Compound `Cc1nc(-c2ccc(F)cc2NC(=O)C(C)(C)C)cc(=O)n1CC(=O)NCC1(CO)COC1` [Compound I-0298] has an IC50 of 100 to 1000 nM.
Compound `CC(C)(C)C(=O)Nc1cc(Cl)ccc1-c1cc(=O)n(Cc2cccc(C(=O)Nc3cccnc3O)c2)cn1` [Compound I-0492] has an IC50 of 10 to 100 nM.
With `COC(=O)Nc1cc(Cl)ccc1-c1cc(=O)n(CC(=O)NC2(C)CC2)c(C)n1` [Compound I-0392] the IC50 was 10 to 100 nM.
For `CCS(=O)(=O)N1CCC(NC(=O)Cn2c(CCCC(F)(F)F)nc(-c3ccc(C(F)(F)F)cc3)cc2=O)CC1` [Compound I-0370], the IC50 was 100 to 1000 nM.
`CC(C)(C)C(=O)Nc1cc(Cl)ccc1-c1cc(=O)n(CC(=O)N2CCC(C(=O)O)CC2)c(CCC(F)(F)F)n1` [Compound I-0367] was tested, and the IC50 was 10 to 100 nM.
With `O=C(Cn1c(=O)cc(-c2ccc(Cl)cc2)[nH]c1=O)NC(Cc1ccccc1)C(=O)O` (centres unmarked) [Compound I-0150] the IC50 was no less than 1000 nM.
Compound `O=C(NCc1cccnc1O)c1cccc(Cn2c(CCCC(F)(F)F)nc(-c3ccc(Cl)cc3)cc2=O)c1` [Compound I-0193] has an IC50 of 100 to 1000 nM.
`CCCCCc1nc(-c2ccc(Cl)cc2)cc(=O)n1CC(=O)NCc1ccc(C(=O)O)cc1` [Compound I-0041] gave an IC50 of 10 to 100 nM.
Compound `COC(=O)Nc1cc(C#N)ccc1-c1cc(=O)n(CC(=O)NCC2CNC(=O)C2)c(C)n1` (centres unmarked) [Compound I-0428] has an IC50 of 10 to 100 nM.
For `CC(C)(C)C(=O)Nc1cc(Cl)ccc1-c1cc(=O)n(Cc2cccc(C(=O)NCc3c[nH]nn3)c2)cn1` [Compound I-0488], the IC50 was 100 to 1000 nM.
In the case of `O=C(Cn1cnc(-c2ccc(Cl)cc2)cc1=O)NCCNC(=O)c1ccc2nn[nH]c2c1` [Compound I-0443], the IC50 is reported as no less than 1000 nM.
`CCCCCc1nc(-c2ccc(Cl)cc2)cc(=O)n1CC(=O)N1CCC(c2nc(=O)o[nH]2)CC1` [Compound I-0382] showed an IC50 of 10 to 100 nM.
`CN(C)C(=O)NC1CCN(C(=O)Cn2c(CCCC(F)(F)F)nc(-c3ccc(C(F)(F)F)cc3)cc2=O)CC1` [Compound I-0364] was tested, and the IC50 was 100 to 1000 nM.
For `CCCCCc1nc(-c2ccc(Cl)cc2)cc(=O)n1CC(=O)N1CCC(C(=O)OC)CC1` [Compound I-0113], the IC50 was 10 to 100 nM.
Work on `CCCCCc1nc(-c2ccc(Cl)cc2)cc(=O)n1CC(=O)NC12CCC(C(=O)O)(CC1)CC2` [Compound I-0072] yielded an IC50 of less than 10 nM.
In the case of `COC(=O)Nc1cc(Cl)ccc1-c1cc(=O)n(CC(=O)N2CC(C(C)(C)O)C2)c(C)n1` [Compound I-0441], the IC50 is reported as 100 to 1000 nM.
In the case of `O=C(Cn1cnc(-c2ccc(Cl)cc2)cc1=O)NCCCNC(=O)c1ccc2[nH]nnc2c1` [Compound I-0460], the IC50 is reported as no less than 1000 nM.
`Cc1nc(-c2ccc(Cl)cc2NC(=O)C2CC2)cc(=O)n1CC(=O)NCC1CNC(=O)O1` (centres unmarked) [Compound I-0456] gave an IC50 of 10 to 100 nM.
`CCCCCc1nc(-c2ccc(Cl)cc2)cc(=O)n1CC(=O)NC1(C(=O)O)CCOCC1` [Compound I-0058] gave an IC50 of no less than 1000 nM.
For `COC(=O)Nc1cc(Cl)ccc1-c1cc(=O)n(CC(=O)NC2(c3nc(=O)o[nH]3)CC2)c(C)n1` [Compound I-0470], the IC50 was less than 10 nM.
`CCCCCc1nc(-c2ccc(Cl)cc2)cc(=O)n1CC(=O)NCC(=O)O` [Compound I-0065] gave an IC50 of 10 to 100 nM.
In the case of `COC(=O)Nc1cc(Cl)ccc1-c1cc(=O)n(CC(=O)N2CCC(C#N)CC2)c(C)n1` [Compound I-0433], the IC50 is reported as 10 to 100 nM.
`CCCCCc1nc(-c2ccc(Cl)cc2)cc(=O)n1CC(=O)NCC(O)Cc1ccccc1` (centres unmarked) [Compound I-0088] showed an IC50 of 10 to 100 nM.
`O=C(Cn1c(CCCC(F)(F)F)nc(-c2ccc(C(F)(F)F)cc2)cc1=O)NCc1ccc(O)nc1` [Compound I-0340] gave an IC50 of 100 to 1000 nM.
`COC(=O)Nc1cc(Cl)ccc1-c1cc(=O)n(CC(=O)NCC2(CO)CC2)c(C)n1` [Compound I-0275] was tested, and the IC50 was 10 to 100 nM.
`CCCCCc1nc(-c2ccc(Cl)cc2NC(C)=O)cc(=O)n1CC(=O)NC1(C#N)CC1` [Compound I-0205] gave an IC50 of 10 to 100 nM.
In the case of `CC1(C)CN(c2cc(=O)n(CC(=O)NC3(C#N)CC3)c(CCCC(F)(F)F)n2)C1` [Compound I-0236], the IC50 is reported as no less than 1000 nM.
Compound `CCCCCc1nc(-c2ccc(Cl)cc2)cc(=O)n1CC(=O)NC1CCCNC1=O` (centres unmarked) [Compound I-0082] has an IC50 of 100 to 1000 nM.
Work on `Cc1nc(-c2ccc(C#N)cc2NC(=O)C(C)(C)C)cc(=O)n1Cc1cccc(C(=O)O)c1` [Compound I-0282] yielded an IC50 of less than 10 nM.
`CC(C)CC1CCN(c2cc(=O)n(CC(=O)NC3(C#N)CC3)c(CCCC(F)(F)F)n2)C1` (centres unmarked) [Compound I-0240] gave an IC50 of 100 to 1000 nM.
In the case of `CN(CC(O)CO)C(=O)Cn1c(CCCC(F)(F)F)nc(-c2ccc(Cl)cc2)cc1=O` (centres unmarked) [Compound I-0132], the IC50 is reported as 100 to 1000 nM.
Work on `CC(C)(C)C(=O)Nc1cc(Cl)ccc1-c1cc(=O)n(CC(=O)N2CCC(C(N)=O)CC2)cn1` [Compound I-0468] yielded an IC50 of 10 to 100 nM.
`COC(=O)Nc1cc(C#N)ccc1-c1cc(=O)n(CC(=O)NC(C)(C)C(F)(F)F)c(C)n1` [Compound I-0444] was tested, and the IC50 was less than 10 nM.
Compound `Cc1nc(-c2ccc(Cl)cc2NC(=O)C2CC2)cc(=O)n1CC(=O)NC1(C#N)CC1` [Compound I-0416] has an IC50 of 10 to 100 nM.
`COC(=O)Nc1cc(Cl)ccc1-c1cc(=O)n(CC(=O)N2CCN(C(N)=O)CC2)c(C)n1` [Compound I-0459] showed an IC50 of 10 to 100 nM.
For `CCCCCc1nc(-c2ccc(Cl)cc2)cc(=O)n1CC(=O)NC(C)(C)C(=O)OC` [Compound I-0114], the IC50 was 10 to 100 nM.
Work on `Cc1nc(-c2ccc(Cl)cc2NC(=O)C2CC2)cc(=O)n1CC(=O)N1CC(F)C1` [Compound I-0408] yielded an IC50 of 100 to 1000 nM.
For `N#Cc1ccc(-c2cc(=O)n(CC(=O)NC3(C#N)CC3)c(CCCC(F)(F)F)n2)cc1` [Compound I-0227], the IC50 was less than 10 nM.
For `O=C(O)c1cccc(Cn2c(CCCC(F)(F)F)nc(-c3ccc(Cl)cc3CO)cc2=O)c1` [Compound I-0322], the IC50 was 10 to 100 nM.
For `COC(=O)Nc1cc(Cl)ccc1-c1cc(=O)n(CC(=O)NC2(C)CCS(=O)(=O)C2)c(C)n1` (centres unmarked) [Compound I-0324], the IC50 was 10 to 100 nM.
For `C[C@@H]1COC[C@H](C)N1C(=O)c1cccc(Cn2c(CCCC(F)(F)F)nc(-c3ccc(Cl)cc3)cc2=O)c1` [Compound I-0199], the IC50 was 10 to 100 nM.
`CCCCCc1nc(-c2ccc(Cl)cc2)cc(=O)n1Cc1cccc(C(=O)O)c1` [Compound I-0009] gave an IC50 of 10 to 100 nM.
For `O=C(O)c1cccc(Cn2c(CCCC(F)(F)F)nc(-c3ccc(Cl)cc3)cc2=O)n1` [Compound I-0289], the IC50 was 100 to 1000 nM.
With `COC(=O)Nc1cc(Cl)ccc1-c1cc(=O)n(CC(=O)NCC2CNC(=O)O2)c(C)n1` (centres unmarked) [Compound I-0442] the IC50 was 10 to 100 nM.
For `O=C(Cn1cnc(-c2ccc(Cl)cc2)cc1=O)NCCCCCCNC(=O)c1ccc2nn[nH]c2c1` [Compound I-0483], the IC50 was 100 to 1000 nM.
`C[C@@H]1CN(C(=O)c2cccc(Cn3c(CCCC(F)(F)F)nc(-c4ccc(Cl)cc4)cc3=O)c2)C[C@H](C)O1` [Compound I-0166] gave an IC50 of 100 to 1000 nM.
In the case of `CCCCCNc1nc(-c2ccc(C#N)cc2)cc(=O)n1Cc1cccc(C(=O)OC(C)(C)C)c1` [Compound I-0021], the IC50 is reported as 100 to 1000 nM.
Compound `O=C(Cn1c(CCCC(F)(F)F)nc(-c2ccc(C(F)(F)F)cc2)cc1=O)NC1(c2ccccn2)CC1` [Compound I-0348] has an IC50 of 10 to 100 nM.
